What is called IC50 is the concentration that inhibits the measured activity by half.

For this assay, the target named is T1, Human adenosine A2A receptor (Homo sapiens, UniProt P29274).
T1 construct: host or cells: CHO
T1 sequence (P29274 whole entry): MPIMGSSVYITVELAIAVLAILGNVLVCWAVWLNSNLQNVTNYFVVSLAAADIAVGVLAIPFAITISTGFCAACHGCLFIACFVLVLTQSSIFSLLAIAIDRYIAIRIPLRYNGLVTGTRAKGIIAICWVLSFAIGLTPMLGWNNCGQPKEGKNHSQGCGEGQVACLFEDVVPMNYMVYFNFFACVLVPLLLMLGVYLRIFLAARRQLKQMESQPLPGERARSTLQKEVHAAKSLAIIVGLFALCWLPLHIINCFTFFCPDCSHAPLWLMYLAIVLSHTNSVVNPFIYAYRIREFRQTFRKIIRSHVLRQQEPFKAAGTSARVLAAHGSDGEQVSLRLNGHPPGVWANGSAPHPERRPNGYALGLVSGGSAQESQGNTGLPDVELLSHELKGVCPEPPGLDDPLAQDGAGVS
The experiment in a line: Human adenosine A2A receptor calcium flux assay. It is filed as cell-based. The conditions noted are these: A2A stable CHO cell strain, antagonist mode against agonist NECA at EC80, FLIPR Fluo-4. On the procedure: Human adenosine A2A receptor calcium flux assay
A2A stable cell strain was constructed by Shanghai WuXi PharmaTech, and the host cell was CHO.
Fluo-4 Direct Kit (Invitrogen, Cat. No. F10471). After the fluorescent detection reagent (specifically binding to calcium ions and causing an increase in fluorescence signal) in the kit was incubated with the cells for a suitable period of time, the compound was added to stimulate the cells to cause changes in intracellular calcium flux, thereby causing changes in the fluorescent signal, which can reflect the strength of the agonistic or inhibitory activity of the compound.
F12+10% fetal bovine serum+geneticin 300 ug/ml+blasticidin 2 ug/ml Compound dilution buffer:
Hanks Balanced Salt Buffer (Invitrogen)+20 mM HEPES, configured before each use
The test compounds were dissolved in DMSO to prepare 10 mM stock solutions. The test compounds were diluted to 0.2 mM with DMSO, and the reference compound CGS-15943 was diluted to 0.015 mM with DMSO. Next, 10 points of three-fold serial dilutions were made with ECHO. 900 nl was transferred to the compound plate (Greiner-781280), and 30 ul of compound dilution buffer was added. The final starting concentration of the test compounds was 1 uM and CGS-15943 was 0.075 uM.
Cryopreserved A2A cells were resuscitated, and then resuspended in culture medium to 1×10^6 cells/ml. The suspension was seeded into 384-well polylysine-coated cell plates (Greiner-781946) at 20 μl/well and incubated overnight in a 5% CO2 incubator at 37° C.
The cell plate prepared the day before was taken out from the incubator, and 20 ul of 2× Fluo-4 Direct™ buffer was added to each well. The plate was incubated for 50 minutes in a 5% CO2 incubator at 37° C. and allowed to stand at room temperature for 10 minutes.
Dilution of agonist NECA: 10 points of three-fold serial dilutions were made with Echo for NECA from a starting concentration of 0.15 mM. 900 nL was then transferred to the corresponding compound plate; and then 30 μl of compound dilution buffer was added to the corresponding compound plate. The final starting concentration was 750 nM.
FLIPR instrument software was run. According to the programmed procedure, 10 ul of compound dilution buffer was added to the cell plate and the fluorescence signal was read. 10 ul of the agonist reference compound at the indicated concentration was then added to the cell plate and the fluorescent signal was read. After reading, the data was exported by the “Max-Min”, “Read 90 to Maximum allowed” method in the software, and the EC80 of the A2A cell line was calculated. The agonist was prepared at a concentration of 6× EC80. A 6× EC80 concentration of a reference compound agonist of the corresponding cells was prepared with a buffer solution, and added at 30 ul/well to the corresponding compound plate for use.
FLIPR instrument software was run. According to the programmed procedure, 10 μl of the test compounds and reference compound at an indicated concentration was added to the cell plate and the fluorescence signal was read. 10 ul of the reference compound agonist at a concentration of 6× EC80 was then added to the cell plate and the fluorescent signal was read. For the agonist detection of the compounds, the data was exported by the “Max-Min”, “Read 1 to 90” method in the software. For the antagonist detection of the compound, the data was exported by the “Max-Min”, “Read 90 to Maximum allowed” method in the software. Data were analyzed by GraphPad Prism 5.0 and the IC50 values of the test compounds were calculated.
Background: Calcium flux is commonly read through the fluorescence of an indicator in the cells.
In the case of `Cc1cc(-c2c(-c3ccc(F)cc3)nc(N)n3nc(C#N)nc23)cc(C(F)(F)F)n1` [Example C-76], the IC50 stood at 5.61 nM.
As to `Nc1nc(-c2ccccc2)c(-c2ccc(O)c(C(F)(F)F)c2)c2ncnn12` [Example B-13], the IC50 was 0.71 nM.
Turning to `COc1ccccc1-c1nc(N)n2nc(C)nc2c1-c1cc(C)nc(C(F)(F)F)c1` [Example C-27], the IC50 is 4.93 nM.
For the molecule `Nc1nc(-c2ccccc2)c(-c2ccc3[nH]nnc3c2)c2nc(COCc3ccccc3)nn12` [Example C-23], the IC50 was 2.63 nM.
The figure for `COc1ccccc1-c1nc(N)n2ncnc2c1-c1cc(C)nc(C)c1` [Example A-27] is 4.38 nM; for `COc1ccc(-c2c(-c3ccccc3)nc(N)n3ncnc23)cc1Cl` [Example B-3] it is 9.92 nM; for `N#Cc1nc2c(-c3cc(Cl)nc(C(F)(F)F)c3)c(-c3ccc(F)cc3)nc(N)n2n1` [Example C-79] it is 16.9 nM.
The figure for `COCc1nc2c(-c3cc(C)nc(C(F)(F)F)c3)c(-c3ccccc3)nc(N)n2n1` [Example C-13] is 1.02 nM.
As for `Cc1cc(-c2c(-c3ccc(F)cc3)nc(N)n3nc(CO)nc23)cc(Cl)n1` [Example C-44], the figure is 0.67 nM; as for `COc1ccccc1-c1nc(N)n2nc(C(F)(F)F)nc2c1-c1cc(C)nc(C(F)(F)F)c1` [Example C-31], 14.1 nM.
For `Cc1cc(-c2c(-c3ccc(F)cc3)nc(N)n3ncnc23)cc(C(F)(F)F)n1` [Example A-15], the concentration for half-maximal inhibition (IC50) was 0.38 nM.
As for `Cc1cc(-c2c(-c3ccn(C)n3)nc(N)n3nc(C)nc23)cc(C(F)(F)F)n1` [Example C-64], the figure is 0.36 nM.
As to `COc1ccccc1-c1nc(N)n2nc(CO)nc2c1-c1cc(C)nc(C(F)(F)F)c1` [Example C-50], the concentration for half-maximal inhibition (IC50) was determined as 5.36 nM.
On to `Cc1cc(-c2c(-c3ccccc3F)nc(N)n3ncnc23)cc(C(F)(F)F)n1` [Example A-17], for which the IC50 is 1.3 nM.
With `Nc1nc(-c2ccc(F)cc2)c(-c2ccc3nn[nH]c3c2)c2nc(CO)nn12` [Example C-45], the IC50 was 2.06 nM.
For `Cc1cc(-c2c(-c3ccc(F)cc3)nc(N)n3nc(C(C)(C)O)nc23)cc(Cl)n1` [Example C-78], the IC50 came out at 0.77 nM.
On to `Nc1nc(-c2ccccc2)c(-c2ccc3[nH]nnc3c2)c2nc(C3CC3)nn12` [Example C-26], for which the IC50 was found to be 4.34 nM.
Regarding `Cc1cc(-c2c(-c3ccccc3)nc(N)n3nc(CC4CC4)nc23)cc(C)n1` [Example C-9], the IC50 turned out to be 1.4 nM.
For the molecule `Cc1cc(-c2c(-c3ccccc3F)nc(N)n3nc(CO)nc23)cc(C(F)(F)F)n1` [Example C-52], the IC50 amounted to 1.75 nM.
Regarding `COc1ccccc1-c1nc(N)n2ncnc2c1-c1cc(Cl)nc(C(F)(F)F)c1` [Example A-31], the IC50 stood at 1.25 nM.
For the molecule `Cc1cc(-c2c(-c3ccc(F)cc3F)nc(N)n3ncnc23)cc(C(F)(F)F)n1` [Example A-25], the half-maximal inhibitory concentration (IC50) is 1.14 nM.
In the case of `Cc1cc(Cl)cc(-c2c(-c3ccccc3)nc(N)n3ncnc23)c1` [Example B-26], the IC50 was 14.8 nM.
As for `Nc1nc(-c2ccccc2)c(-c2ccc(O)c(Cl)c2)c2ncnn12` [Example B-4], the IC50 was 0.14 nM.
On to `Nc1nc(-c2ccccc2)c(-c2ccc3[nH]nc(C(F)(F)F)c3c2)c2ncnn12` [Example B-10], for which the IC50 is 1.98 nM.
For the molecule `Cc1nc2c(-c3ccc4[nH]nnc4c3)c(-c3ccc(F)cc3F)nc(N)n2n1` [Example C-49], the IC50 amounted to 50 nM.
As for `COCCOCc1nc2c(-c3cc(C)nc(Cl)c3)c(-c3ccc(F)cc3)nc(N)n2n1` [Example C-69], the IC50 is 54.3 nM.
As for `Nc1nc(-c2ccccc2)c(-c2ccc3c(c2)OCO3)c2ncnn12` [Example B-9], the 50% inhibitory concentration (IC50) worked out at 48 nM.
As to `Nc1nc(-c2ccccc2)c(-c2ccc3c(c2)CCCN3)c2ncnn12` [Example B-17], the IC50 is 1.89 nM.
`Cc1cc(-c2c(-c3ccc(F)cc3F)nc(N)n3ncnc23)cc(C)n1` [Example A-26]: the IC50 worked out at 0.87 nM.
In the case of `Cc1cc(-c2c(-c3ccc(F)cc3)nc(N)n3nc(C(F)(F)F)nc23)cc(C(F)(F)F)n1` [Example C-40], the IC50 is 44.5 nM.
As for `Cc1cc(-c2c(-c3ccccc3)nc(N)n3nc(CNC4CC4)nc23)cc(C)n1` [Example C-20], the figure is 1.2 nM.
Consider `Cc1cc(-c2c(-c3ccc(F)cc3)nc(N)n3nc(CO[C@H]4CCOC4)nc23)cc(Cl)n1` [Example C-70], for which the IC50 worked out at 0.59 nM.
Take `COCCOCc1nc2c(-c3cc(C)nc(C(F)(F)F)c3)c(-c3ccc(F)cc3)nc(N)n2n1` [Example C-68]: the half-inhibitory concentration (IC50) stood at 0.64 nM.
In the case of `Cc1cc(-c2c(-c3ccccc3)nc(N)n3nc(C)nc23)cc(C)n1` [Example C-6], the IC50 was found to be 0.74 nM.
For the molecule `Cc1cc(-c2c(-c3ccccc3)nc(N)n3nc(CC4CC4)nc23)cc(C(F)(F)F)n1` [Example C-17], the IC50 worked out at 10.4 nM.
`Cc1cc(-c2c(-c3ccncc3)nc(N)n3ncnc23)cc(C(F)(F)F)n1` [Example A-11]: the 50% inhibitory concentration (IC50) was determined as 3.87 nM.
For the molecule `Cc1cc(-c2c(-c3ccc(O)cc3)nc(N)n3ncnc23)cc(C(F)(F)F)n1` [Example A-10], the IC50 came out at 0.88 nM.
The figure for `CCc1cc(-c2c(-c3ccccc3)nc(N)n3ncnc23)cc(C(F)(F)F)n1` [Example B-32] is 2.83 nM.
For `Cc1cc(-c2c(-c3ccn(C)n3)nc(N)n3ncnc23)cc(C(F)(F)F)n1` [Example A-21], the IC50 was found to be 0.9 nM.
As for `CCc1nc2c(-c3cc(C)nc(C(F)(F)F)c3)c(-c3ccccc3F)nc(N)n2n1` [Example C-35], the IC50 was 4.13 nM.
Take `Nc1nc(-c2ccccc2)c(-c2ccc3ncccc3c2)c2ncnn12` [Example B-16]: the IC50 is 0.14 nM.
The figure for `COc1ccccc1Cc1nc2c(-c3cc(C)nc(C(F)(F)F)c3)c(-c3ccccc3)nc(N)n2n1` [Example C-15] is 20.4 nM.
With `Cc1cc(-c2c(-c3ccc(C)o3)nc(N)n3nc(CO)nc23)cc(C(F)(F)F)n1` [Example C-66], the IC50 was 0.79 nM.
As for `COCc1nc2c(-c3cc(C)nc(C)c3)c(-c3ccccc3)nc(N)n2n1` [Example C-14], the IC50 was found to be 0.68 nM.
In the case of `Nc1nc(-c2ccc(F)cc2F)c(-c2ccc3[nH]nnc3c2)c2nc(C(F)(F)F)nn12` [Example C-34], the IC50 worked out at 73.8 nM.
With `Nc1nc(-c2ccccc2)c(-c2cc(C(F)(F)F)c3[nH]ncc3c2)c2ncnn12` [Example B-14], the IC50 is 0.47 nM.
For `CCc1nc2c(-c3cc(C)nc(C(F)(F)F)c3)c(-c3ccccc3)nc(N)n2n1` [Example C-7], the IC50 is 1.35 nM.
As for `Cc1cc(-c2c(-c3ccc(F)cc3)nc(N)n3nc(C)nc23)cc(Cl)n1` [Example C-54], the IC50 amounted to 1.08 nM.
For the molecule `Nc1nc(-c2ccccc2)c(-c2ccc3[nH]nnc3c2)c2nc(CO)nn12` [Example C-24], the IC50 came out at 0.95 nM.
Consider `Cc1nc2c(-c3ccc4[nH]nnc4c3)c(-c3ccccc3)nc(N)n2n1` [Example C-22], for which the IC50 came out at 2.96 nM.
`Cc1cc(-c2c(-c3ccc(Cl)cc3)nc(N)n3ncnc23)cc(C(F)(F)F)n1` [Example A-9]: the IC50 is 1.13 nM.
As for `Cc1cc(-c2c(-c3ccc(C)o3)nc(N)n3nc(C#N)nc23)cc(C(F)(F)F)n1` [Example C-74], the figure is 1.72 nM; as for `Cc1cc(-c2c(-c3ccc(C)o3)nc(N)n3nc(CO)nc23)cc(Cl)n1` [Example C-67], 0.26 nM; as for `Cc1cc(-c2c(-c3ccc(F)cc3)nc(N)n3nc(CO)nc23)cc(C)n1` [Example C-55], 0.86 nM.
The figure for `COc1cc(F)ccc1-c1nc(N)n2ncnc2c1-c1cc(C)nc(C)c1` [Example A-24] is 4.9 nM; for `Nc1nc(-c2ccc(F)cc2)c(-c2ccc3[nH]nnc3c2)c2nc(C(F)(F)F)nn12` [Example C-42] it is 10.1 nM; for `Cc1cc(-c2c(-c3ccc(F)cc3)nc(N)n3nc(C#N)nc23)cc(Cl)n1` [Example C-73] it is 1.73 nM.
Turning to `Nc1nc(-c2ccccc2)c(-c2ccc3[nH]ncc3c2)c2ncnn12` [Example B-7], the IC50 turned out to be 0.17 nM.
